In this assay the target is T1, rat brain N-type calcium channel subunits (α1B+α2δ+β1b) (Rattus norvegicus, UniProt Q02294).
T1 construct: expressed in transfected cells; host or cells: HEK 293
Briefly: N-type calcium channel block, whole cell patch clamp in HEK 293 cells. Particulars: holding −80 mV to +10 mV, 5 mM Ba. The assay is classed as cell-based. The procedure: Antagonist activity was measured using whole cell patch recordings on human embryonic kidney cells either stably or transiently expressing rat α1B+α2δ+β1b channels (N-type channels) with 5 mM barium as a charge carrier. P/Q-type channels (α1A+α2δ+β1b cDNA subunits) and L-type channels (α1C+α2δ+β1b cDNA subunits) were also transiently expressed in HEK 293 cells.
For transient expression, host cells, such as human embryonic kidney cells, HEK 293 (ATCC# CRL 1573) were grown in standard DMEM medium supplemented with 2 mM glutamine and 10% fetal bovine serum. HEK 293 cells were transfected by a standard calcium-phosphate-DNA coprecipitation method using the rat α1B+β1b+α2δ N-type calcium channel subunits in a vertebrate expression vector (for example, see Current Protocols in Molecular Biology).
After an incubation period of from 24 to 72 hrs the culture medium was removed and replaced with external recording solution (see below). Whole cell patch clamp experiments were performed using an Axopatch 200B amplifier (Axon Instruments, Burlingame, Calif.) linked to an IBM compatible personal computer equipped with pCLAMP software. Borosilicate glass patch pipettes (Sutter Instrument Co., Novato, Calif.) were polished (Microforge, Narishige, Japan) to a resistance of about 4 MΩ when filled with cesium methanesulfonate internal solution (composition in MM: 109 CsCH3 SO4, 4 MgCl2, 9 EGTA, 9 HEPES, pH 7.2). Cells were bathed in 5 mM Ba^++ (in mM: 5 BaCl2, 1 MgCl2, 10 HEPES, 40 tetraethylammonium chloride, 10 glucose, 87.5 CsCl pH 7.2). […] Drugs were perfused directly into the vicinity of the cells using a microperfusion system.
Normalized dose-response curves were fit (Sigmaplot 4.0, SPSS Inc., Chicago, Ill.) by the Hill equation to determine IC50 values. Steady-state inactivation curves were plotted as the normalized test pulse amplitude following 5 s inactivating prepulses at +10 mV increments. Inactivation curves were fit (Sigmaplot 4.0) with the Boltzman equation, Ipeak (normalized)=1/(1+exp((V−Vh)z/25.6)), where V and Vh are the conditioning and half inactivation potentials, respectively, and z is the slope factor.
N-type calcium channel blocking activity was assayed in human embryonic kidney cells, HEK 293, stably transfected with the rat brain N-type calcium channel subunits (α1B+α2δ+β1b cDNA subunits). Alternatively, N-type calcium channels (α1B+α2δ+β1b cDNA subunits), L-type channels (α1C+α2δ+β1b cDNA subunits) and P/Q-type channels (α1A+α2δ+β1b cDNA subunits) were transiently expressed in HEK 293 cells. Briefly, cells were cultured in Dulbecco's modified eagle medium (DMEM) supplemented with 10% fetal bovine serum, 200 U/ml penicillin and 0.2 mg/ml streptomycin at 37° C. with 5% CO2. At 85% confluency cells were split with 0.25% trypsin/1 mM EDTA and plated at 10% confluency on glass coverslips. At 12 hours the medium was replaced and the cells transiently transfected using a standard calcium phosphate protocol and the appropriate calcium channel cDNA's. Fresh DMEM was supplied and the cells transferred to 28° C./5% CO2. Cells were incubated for 1 to 2 days to whole cell recording.
Whole cell patch clamp experiments were performed using an Axopatch 200B amplifier (Axon Instruments, Burlingame, Calif.) linked to a personal computer equipped with pCLAMP software. The external and internal recording solutions contained, respectively, 5 mM BaCl2, […], 10 mM HEPES, 40 mM TEACl, 10 mM glucose, 87.5 mM CsCl (pH 7.2) and 108 mM CsMS, 4 mM MgCl2, 9 mM EGTA, 9 mM HEPES (pH 7.2). Currents were typically elicited from a holding potential of −80 mV to +10 mV using Clampex software (Axon Instruments).

[1] abbreviates: low frequency stimulation 0.067 Hz (tonic block), read-out: IC50 at 0.067 Hz.
Setting [2] is: pulse frequency 0.2 Hz (frequency dependent block), read-out: IC50 at 0.2 Hz.

Read-outs that look alike come from different tables or passages of the source.

T1 sequence (Q02294 whole entry): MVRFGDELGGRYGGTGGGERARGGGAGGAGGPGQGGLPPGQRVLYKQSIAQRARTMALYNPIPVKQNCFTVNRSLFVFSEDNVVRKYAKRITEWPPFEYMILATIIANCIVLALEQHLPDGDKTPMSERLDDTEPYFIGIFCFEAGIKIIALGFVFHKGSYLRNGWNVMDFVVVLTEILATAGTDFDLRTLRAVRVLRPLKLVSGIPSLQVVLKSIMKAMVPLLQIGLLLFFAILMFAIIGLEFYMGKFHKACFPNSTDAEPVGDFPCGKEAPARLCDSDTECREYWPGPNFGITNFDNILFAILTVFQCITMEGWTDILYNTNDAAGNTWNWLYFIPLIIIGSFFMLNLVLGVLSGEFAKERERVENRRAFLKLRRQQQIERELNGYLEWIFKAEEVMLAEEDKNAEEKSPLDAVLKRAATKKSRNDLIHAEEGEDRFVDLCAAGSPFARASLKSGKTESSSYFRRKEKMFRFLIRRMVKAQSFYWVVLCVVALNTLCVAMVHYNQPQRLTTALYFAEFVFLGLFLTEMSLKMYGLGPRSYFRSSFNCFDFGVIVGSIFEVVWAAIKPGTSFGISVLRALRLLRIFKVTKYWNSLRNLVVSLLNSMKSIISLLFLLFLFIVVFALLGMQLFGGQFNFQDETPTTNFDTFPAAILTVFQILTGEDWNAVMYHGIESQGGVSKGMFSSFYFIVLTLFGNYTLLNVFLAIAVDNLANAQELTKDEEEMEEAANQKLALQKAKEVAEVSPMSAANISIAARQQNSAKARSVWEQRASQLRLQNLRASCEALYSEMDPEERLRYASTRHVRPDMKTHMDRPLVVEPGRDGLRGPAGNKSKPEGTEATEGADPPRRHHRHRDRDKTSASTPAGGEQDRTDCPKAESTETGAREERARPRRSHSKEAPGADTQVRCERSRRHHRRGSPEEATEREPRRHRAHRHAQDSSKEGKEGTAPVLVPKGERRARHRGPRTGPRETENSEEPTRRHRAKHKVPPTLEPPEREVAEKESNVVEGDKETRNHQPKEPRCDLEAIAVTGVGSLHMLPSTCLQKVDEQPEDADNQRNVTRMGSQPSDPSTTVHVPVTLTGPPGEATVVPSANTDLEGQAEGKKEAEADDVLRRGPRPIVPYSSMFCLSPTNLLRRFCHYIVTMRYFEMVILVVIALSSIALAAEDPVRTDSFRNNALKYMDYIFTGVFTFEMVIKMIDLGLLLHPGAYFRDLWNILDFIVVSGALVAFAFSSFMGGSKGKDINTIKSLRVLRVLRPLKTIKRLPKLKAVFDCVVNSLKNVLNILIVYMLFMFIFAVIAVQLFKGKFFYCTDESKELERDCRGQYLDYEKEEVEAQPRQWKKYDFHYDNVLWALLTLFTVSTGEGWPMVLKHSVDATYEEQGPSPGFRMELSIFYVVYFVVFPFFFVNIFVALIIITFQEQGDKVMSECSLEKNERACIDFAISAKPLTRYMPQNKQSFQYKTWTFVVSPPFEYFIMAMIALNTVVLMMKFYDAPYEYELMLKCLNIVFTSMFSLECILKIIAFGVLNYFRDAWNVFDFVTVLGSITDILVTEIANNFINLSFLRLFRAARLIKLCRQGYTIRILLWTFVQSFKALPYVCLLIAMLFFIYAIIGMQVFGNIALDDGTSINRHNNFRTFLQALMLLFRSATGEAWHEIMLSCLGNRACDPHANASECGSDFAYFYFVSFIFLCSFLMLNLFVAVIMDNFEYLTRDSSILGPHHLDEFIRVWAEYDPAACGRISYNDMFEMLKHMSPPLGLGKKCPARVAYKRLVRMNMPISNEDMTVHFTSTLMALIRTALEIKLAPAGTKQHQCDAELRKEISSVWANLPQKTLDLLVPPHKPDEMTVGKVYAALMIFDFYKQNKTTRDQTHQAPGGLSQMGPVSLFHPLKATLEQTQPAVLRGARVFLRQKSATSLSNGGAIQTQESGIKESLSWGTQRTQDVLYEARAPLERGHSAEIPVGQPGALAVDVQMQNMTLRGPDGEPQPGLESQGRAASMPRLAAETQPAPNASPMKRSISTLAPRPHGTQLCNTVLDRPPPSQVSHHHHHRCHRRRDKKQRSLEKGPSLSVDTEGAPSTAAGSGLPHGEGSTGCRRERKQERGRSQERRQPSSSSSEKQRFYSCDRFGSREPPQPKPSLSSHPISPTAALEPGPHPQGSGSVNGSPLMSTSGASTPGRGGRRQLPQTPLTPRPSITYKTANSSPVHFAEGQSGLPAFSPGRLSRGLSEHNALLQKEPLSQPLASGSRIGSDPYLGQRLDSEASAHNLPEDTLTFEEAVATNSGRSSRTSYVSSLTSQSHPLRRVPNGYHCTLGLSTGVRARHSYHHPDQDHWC

As to `COc1cc(C(=O)N2CCC(CN(C)CCCCCC(c3ccc(F)cc3)c3ccc(F)cc3)C2)cc(OC)c1OC` (stereo not drawn) [Compound P63], the 50% inhibitory concentration (IC50) by setting is: under setting [1], 380 nM; under setting [2], 330 nM.
Regarding `O=C(CC(c1ccc(F)cc1)c1ccc(F)cc1)NCC1CCN(C(c2ccccc2)c2ccccc2)C1` (stereo not drawn) [Compound P51], the IC50 turned out to be 72 nM under setting [1] and 56 nM under setting [2].
With `COc1cc(CN2CCC(CNCCCCCC(c3ccc(F)cc3)c3ccc(F)cc3)C2)cc(OC)c1OC` (stereo not drawn) [Compound P6], under setting [1], the concentration for half-maximal inhibition (IC50) was 212 nM.
Consider `CN(CC1CCN(C(c2ccccc2)c2ccccc2)C1)C(=O)CC(c1ccccc1)c1ccccc1` (stereo not drawn) [Compound P53], for which the IC50 under setting [1] was 223 nM and the IC50 under setting [2] amounted to 157 nM.
With `O=C(CC(c1ccccc1)c1ccccc1)NCC1CCN(C(c2ccccc2)c2ccccc2)C1` (stereo not drawn) [Compound P1], the 50% inhibitory concentration (IC50) under setting [1] came out at 61 nM.
For `CC(C)(C)c1ccc(C(c2ccccc2)N2CCC(CNC(=O)CC(c3ccc(F)cc3)c3ccc(F)cc3)C2)cc1` (stereo not drawn) [Compound P52], the 50% inhibitory concentration (IC50) reads like this: under setting [1], 135 nM; under setting [2], 110 nM.
On to `CC(C)(C)c1cc(C(=O)N2CCC(CNC(=O)CCCCC(c3ccc(F)cc3)c3ccc(F)cc3)C2)cc(C(C)(C)C)c1O` (stereo not drawn) [Compound P9], for which, under setting [1], the IC50 was determined as 15 nM.
With `CN(CCC(c1ccccc1)c1ccccc1)CC1CCN(C(c2ccccc2)c2ccccc2)C1` (stereo not drawn) [Compound P56], the half-inhibitory concentration (IC50) under setting [1] was determined as 137 nM and the IC50 under setting [2] is 92 nM.
Taken in the same sequence, the figures for `COc1cc(C(=O)NCC2CCN(CCCCCC(c3ccc(F)cc3)c3ccc(F)cc3)C2)cc(OC)c1OC` (stereo not drawn) [Compound P20] were 450 nM and 280 nM.
For the molecule `COc1c(C(C)(C)C)cc(CN2CCC(CNCCCCCC(c3ccc(F)cc3)c3ccc(F)cc3)C2)cc1C(C)(C)C` (stereo not drawn) [Compound P12], the concentration for half-maximal inhibition (IC50) under setting [1] was found to be 32 nM.
On the same count and under the same terms, then `CC(C)(C)c1cc(C(=O)NCC2CCN(C(=O)CCCCC(c3ccc(F)cc3)c3ccc(F)cc3)C2)cc(C(C)(C)C)c1O` (stereo not drawn) [Compound P7], with 49 nM.
For `O=C(NCC1CCN(CCCCCC(c2ccc(F)cc2)c2ccc(F)cc2)C1)c1cc(C(F)(F)F)cc(C(F)(F)F)c1` (stereo not drawn) [Compound P21], the IC50 runs as follows: under setting [1], 210 nM; under setting [2], 150 nM.
With `COc1cc(CNCC2CCN(CCCCCC(c3ccc(F)cc3)c3ccc(F)cc3)C2)cc(OC)c1OC` (stereo not drawn) [Compound P4], the IC50 under setting [1] was determined as 400 nM.
With `CC(C)(C)c1cc(CNCC2CCN(CCCCCC(c3ccc(F)cc3)c3ccc(F)cc3)C2)cc(C(C)(C)C)c1O` (stereo not drawn) [Compound P8], the half-inhibitory concentration (IC50) under setting [1] stood at 35 nM.
For `O=C(CC(c1ccc(F)cc1)c1ccc(F)cc1)NCC1CCN(C(c2ccccc2)c2ccc(F)cc2)C1` (stereo not drawn) [Compound P50], the half-inhibitory concentration (IC50) was found to be 76 nM under setting [1] and 53 nM under setting [2].
As for `COc1c(C(C)(C)C)cc(CNCC2CCN(CCCCCC(c3ccc(F)cc3)c3ccc(F)cc3)C2)cc1C(C)(C)C` (stereo not drawn) [Compound P14], the IC50 under setting [1] is 39 nM.
Turning to `CN(C)CCOc1c(C(C)(C)C)cc(C(=O)N2CCC(CNC(=O)CCCCC(c3ccc(F)cc3)c3ccc(F)cc3)C2)cc1C(C)(C)C` (stereo not drawn) [Compound P23], the IC50 came out at 410 nM under setting [1] and 200 nM under setting [2].
Consider `CC(C)(C)c1cc(CNCC2CCN(CCCCCC(c3ccc(F)cc3)c3ccc(F)cc3)C2)cc(C(C)(C)C)c1` (stereo not drawn) [Compound P18], for which the half-inhibitory concentration (IC50) under setting [1] was 28 nM.

The record behind these values is patent US7244758B2, “N-type calcium channel blockers” (Neuromed Pharmaceuticals Ltd., priority 2003, dated 2007).
